Source: US20100249138A1, “MPZP: A SMALL MOLECULE CORTICOTROPIN-RELEASING FACTOR TYPE 1 RECEPTOR (CRF1) ANTOGONIST” (priority 2007, published 2010)
Entries after “also recorded” stand apart in the source; their conditions may differ.

Tests used:
[1] = tested on: animal model of alcohol dependence; test: Operant alcohol and water self-administration in alcohol vapor-dependent and nondependent rats (Study 2); assay type: in vivo, rat; conditions: for alcohol self-administration (g/kg intake): 0, 5, 10, 20 mg/kg
Source text: The effect of MPZP on drinking behavior was studied in an established animal model of alcohol dependence. […] (2006) 26:11324-11332; see also Roberts et al., Alcohol Clin. Exp. Res. (1996) 20:1289-1298; Overstreet et al., Alcohol Clin. Exp. Res. (2002) 26:1259-1268; Rimondini et al., FASEB J. (2002) 16:27-35; Valdez et al., Alcohol Clin. Exp. Res. (2002) 26:1494-1501 for related models].
Animals were permitted to self-administer alcohol or water orally in a concurrent, two-lever, free-choice contingency. A continuous reinforcement (fixed ratio-1) schedule was used in which each lever press was reinforced. Animals acquired alcohol self-administration using a variation of the previously described saccharin fading free-choice operant conditioning protocol [Samson et al., Alcohol Clin. Exp. Res. (1986) 10:436-442].
The present procedure culminates in pharmacologically relevant levels of alcohol self-administration, as defined by blood alcohol levels (BALs), in nondependent animals with limited access to alcohol over a 6-week period [Roberts et al., Alcohol Clin. Exp. Res. (1999) 23:1151-1157]. The modified procedure in the present study utilized a sweetened solution (“supersac”) containing 3% glucose and 0.125% saccharin (Sigma, St. Louis, Mo.) instead of water restriction and 0.2% saccharin to initiate and maintain operant responding [Funk et al., J. Neurosci. (2006) 26:11324-11332].
Animals respond for the sweetened solution within 1-2 training sessions, making water restriction unnecessary. Operant sessions during training were conducted 5 days per week between 0900 and 1500 (lights on at 0600). Operant sessions were 30 minutes in duration, except during the initial days of training in which sessions lasted up to 2 hours to permit acquisition of responding for the sweetened solution. Alcohol (10% w/v) then was added to the sweetened solution, and once mean responding stabilized (around one week) the glucose was removed from the solution, leaving only 0.125% saccharin and 10% w/v ethanol.
Animals then were maintained on 10% w/v ethanol for at least 3 weeks, and stable responders (±25% across three consecutive sessions) were evenly divided into two groups matched for baseline responding and exposed to intermittent ethanol vapors (dependent) or air (nondependent) as described below. A total of 16 rats (dependent, n=8; nondependent, n=8) were used for this experiment.
The self-administration system comprised test chambers (Coulbourn Instruments, Allentown, Pa.) contained within wooden sound-attenuated ventilated cubicles. The test chambers were equipped with two retractable levers located 4 cm above the grid floor and 4.5 cm to either side of a small stainless steel receptacle containing two drinking cups. […] Tap water was delivered to one dish, and the experimental solution (e.g., sweetened solution or alcohol) was delivered to the other dish. Fluid delivery and recording of operant self-administration were controlled by a computer. Lever presses were not recorded during the 0.5 second inter-response time-out interval when solution was being delivered.
A recent modification of the alcohol dependence model was made to reflect the natural progression of alcohol dependence in which alcohol exposure occurs in a series of extended exposures followed by periods of withdrawal [O′Dell et al., Alcohol Clin. Exp. Res. (2004) 28:1676-1682]. Chronic exposure to intermittent alcohol vapor exposure elicits even higher alcohol self-administration than continuous vapor (Ibid.), and the intermittent procedure therefore was used to induce dependence in trained animals in the present study. Vapors were delivered on a 14 hours on/10 hours off schedule for 4 weeks before post-vapor testing began.
Beginning 4 weeks after the onset of vapor exposure, post-vapor alcohol self-administration testing was conducted 2 times per week during acute withdrawal (6-8 hours after cessation of daily vapor exposure). […]

[2] = tested on: defensive burying model of active anxiety-like behavior; conditions: doses similar to 3.6-27.5 mg/kg; Fekete et al. 2003; cited from earlier work

For `COCCN(CCOC)c1cc(C)nc2c(-c3ccc(OC)cc3C)c(C)nn12` [MPZP, N,N-bis(2-methoxyethyl)-3-(4-methoxy-2-methylphenyl)-2,5-dimethyl-pyrazolo[1,5-a]pyrimidin-7-amine], the ED50 ([1]; Rattus norvegicus, sc, dependent animals, acute withdrawal (6-8 hours), s.c. 1 hour before 30 minute session, read-out: ED50, reduction of alcohol self-administration (sigmoidal dose-response fit)) was 10.7 mg/kg, the “alcohol self-administration (g/kg intake)” value ([1]; dependent animals, 20 mg/kg vs vehicle) was “dose-dependently reduced; also recorded: significantly reduced” and the alcohol responses ([1]; dependent animals, 5 mg/kg) was 72±14. The alcohol responses ([1]; dependent animals, 10 mg/kg) was 70±7, the alcohol responses ([1]; dependent animals, 20 mg/kg) was 47±7 and the “water self-administration (responses)” value ([1]; dependent or nondependent animals) was “no effect”. The “alcohol self-administration (g/kg intake)” value ([1]; nondependent animals) was “not nondependent animals; also recorded: no effect”, the alcohol responses ([1]; nondependent animals, 5 mg/kg) was 37±5 and the alcohol responses ([1]; nondependent animals, 10 mg/kg) was 32±5. For the same compound, the alcohol responses ([1]; nondependent animals, 20 mg/kg) was 33±4 and the “anxiety-like behavior in the defensive burying test” value [2] was “reduced anxiety-like behavior”.
